Data set [1] relates to T47D. In words: Induction of apoptosis in human T47D cells assessed as caspase activation after 48 hrs. The class given is functional, cell-based.
Another data set relates to DLD-1. As to the kind of experiment: Induction of apoptosis in human DLD1 cells assessed as caspase activation after 48 hrs. The class given is functional, cell-based. As to conditions: DLD-1, 48 h.
A further data set relates to NCI-H1299. In words: Induction of apoptosis in human H1299 cells assessed as caspase activation after 48 hrs. The class given is functional, cell-based. Conditions: NCI-H1299, 48 h.
A short description of data set [2]: Solubility in ethanol/cremophor EL/D5W solution. The class given is physicochemical.
Data set [3] relates to T47D. As to the kind of experiment: Growth inhibition of human T47D cells after 48 hrs. The class given is functional.
Data set [4] in a line: Growth inhibition of human H1299 cells after 48 hrs. The class given is functional. Conditions: NCI-H1299, 48 h.
Data set [5] is described as follows: Aqueous solubility in dextrose 5% in water. The class given is physicochemical.
A short description of data set [6]: Solubility in DMSO/ethanol/cremophor EL/D5W solution. The class given is physicochemical.
In the next data set the test system is MX1. In words: Antitumor activity against human MX1 cells xenografted in Crl:Nu/Nu-nuBR mouse assessed as inhibition of tumor growth at 20 mg/kg, iv daily once for day 1 to 5 and 8 to 12. The class given is functional, organism-based. More on the design: dose 20 mg/kg.
The next data set has as its system Mus musculus. In words: Toxicity in Crl:Nu/Nu-nuBR mouse assessed as decrease of body weight at 20 mg/kg, iv daily once for day 1 to 5 and 8 to 12. The class given is organism-based. More on the design: dose 20 mg/kg, route intravenous; scale not given: the % may be the effect or the level left. Conditions: in vivo.

pEC50: −log10 of the molar value. Converted amounts (≈) assume the structure as drawn. The source made the active and inactive calls. The calls are words filed in the database; no cut-off is given here. Where only a bound is given, the exact number is not on record here.

What is called pEC50 is the negative decadic logarithm of the EC50, by convention in mol/L. In general, solubility refers to how much of the substance goes into solution per volume. The term GI50 denotes the concentration giving 50% growth inhibition. For `Cc1cc(Cl)cnc1-c1noc(-c2occc2Br)n1`, the results for the pEC50 with T47D [1], in the data set with DLD-1 and in the data set with NCI-H1299 were 6.03, 5.92 and below 5.00, respectively. In data set [2], this molecule had a solubility of 3800 µg/mL (≈ 11.2 mM). Also, the GI50 with T47D [3] is 660 nM; in [4], above 10000 nM.

Turning to `Clc1ccc(-c2noc(-c3sccc3Cl)n2)cc1Cl`, the results for the pEC50 with T47D [1], in the data set on DLD-1 and in the data set with NCI-H1299 were 5.85, 6.43 and below 5.00, respectively.

`Clc1ccc(-c2noc(-c3sccc3Cl)n2)c(CBr)c1`: the pEC50 was 5.35 in the data set on T47D [1], 5.96 in the data set on DLD-1 and 5.07 in the data set on NCI-H1299.

With `OCc1cc(Cl)ccc1-c1noc(-c2occc2Br)n1`, the pEC50 is 5.54 in the data set on T47D [1] and below 5.00 in the data set on NCI-H1299. Also, in data set [2], the concentration in solution (solubility) came to 4000 µg/mL (≈ 11.2 mM). For the same molecule, the GI50 was 500 nM in the data set with T47D [3] and above 10000 nM in [4].

Turning to `CN(C)CCNc1cc(-c2noc(-c3sccc3Cl)n2)ccc1Cl`, the pEC50 in the data set with T47D [1], with DLD-1 and with NCI-H1299 was below 5.00 each time.

`O=P([O-])([O-])OCc1cc(Cl)ccc1-c1noc(-c2occc2Br)n1.[Na+].[Na+]`: in data set [5], the concentration in solution (solubility) was 10000 µg/mL.

As for `Cc1cc(-c2noc(-c3sccc3Cl)n2)ccc1Cl`, the pEC50 in the data set with T47D [1] is 5.77; with DLD-1, 6.23; with NCI-H1299, below 5.00.

`Cc1cc(Cl)ccc1-c1noc(-c2sccc2Cl)n1`: the pEC50 is 6.04 in the data set with T47D [1], 6.42 in the data set on DLD-1 and below 5.00 in the data set with NCI-H1299.

Take `Clc1ccc(-c2noc(-c3sccc3Cl)n2)cc1`: the figures for the pEC50 with T47D [1], with DLD-1 and with NCI-H1299 were 5.92, 6.36 and below 5.00, respectively. Moreover, the GI50 was 190 nM in the data set on T47D [3] and above 10000 nM in data set [4].

On to `Clc1ccc(-c2noc(-c3occc3Br)n2)c(CBr)c1`, for which the pEC50 in the data set on T47D [1] was 5.66; with NCI-H1299, 5.64.

As to `COc1cc2c(c(OC)c1OC)-c1ccc(OC)c(=O)cc1[C@@H](NC(C)=O)CC2` [COLCHICINE], in the data set with DLD-1, the pEC50 was 6.74. Moreover, the GI50 with T47D [3] came out at 140 nM; in [4], 63 nM.

Consider `CC[C@]1(O)C[C@@H]2CN(CCc3c([nH]c4ccccc34)[C@@](C(=O)OC)(c3cc4c(cc3OC)N(C)[C@H]3[C@@](O)(C(=O)OC)[C@H](OC(C)=O)[C@]5(CC)C=CCN6CC[C@]43[C@@H]65)C2)C1` [VINBLASTINE], for which the pEC50 in the data set with DLD-1 is 6.80; with NCI-H1299, 7.09.

Turning to `Nc1cc(Cl)ccc1-c1noc(-c2sccc2Cl)n1`, the pEC50 in the data set with T47D [1] was 5.51; in the data set on DLD-1, 5.96; in the data set with NCI-H1299, below 5.00.

Take `Nc1cc(-c2noc(-c3sccc3Cl)n2)ccc1Cl`: the figures for the pEC50 in the data set on T47D [1], with DLD-1 and in the data set with NCI-H1299 were 5.62, 6.24 and below 5.00, respectively.

In the case of `CC(=O)O[C@H]1C(=O)[C@@]2(C)[C@H]([C@H](OC(=O)c3ccccc3)[C@]3(O)C[C@H](OC(=O)[C@H](O)[C@@H](NC(=O)c4ccccc4)c4ccccc4)C(C)=C1C3(C)C)[C@]1(OC(C)=O)CO[C@@H]1C[C@@H]2O` [PACLITAXEL], the pEC50 is 7.27 in the data set with DLD-1 and 7.01 in the data set on NCI-H1299. For the same molecule, the 50% growth inhibitory concentration (GI50) in the data set with T47D [3] came out at 26 nM; in data set [4] it was 23 nM.

On to `Cc1cc(Cl)ccc1-c1noc(-c2occc2Br)n1`, for which the pEC50 was 5.96 in the data set on T47D [1], 6.15 in the data set on DLD-1 and below 5.00 in the data set on NCI-H1299. In addition, in [6], the solubility worked out at 4800 µg/mL (≈ 14.1 mM). Further, the GI50 was 130 nM in the data set with T47D [3] and above 10000 nM in data set [4]. Moreover, the inhibition entry in the data set with MX1 was “Active”. Besides, the Activity with Mus musculus is on record as below 10%.

For `CN(C)c1cc(-c2noc(-c3sccc3Cl)n2)ccc1Cl`, the values for the pEC50 in the data set with T47D [1], with DLD-1 and in the data set on NCI-H1299 were 5.68, 6.27 and below 5.00, respectively.

As to `O=P(O)(O)OCc1cc(Cl)ccc1-c1noc(-c2occc2Br)n1`, the pEC50 in the data set on T47D [1] and in the data set with NCI-H1299 was below 5.00 throughout.

The record behind these values is ChEMBL document CHEMBL1152348, “Discovery of 3-aryl-5-aryl-1,2,4-oxadiazoles as a new series of apoptosis inducers. 2. Identification of more aqueous soluble analogs as potential anticancer agents” (Bioorg Med Chem Lett, 2009).
